Laboratory results as given in ChEMBL document CHEMBL4028829, “New derivatives of ursolic acid through the biotransformation by Bacillus megaterium CGMCC 1.1741 as inhibitors on nitric oxide production” (Bioorg Med Chem Lett, 2017).
pIC50: −log10 of the molar value.

Experiments:
RAW264.7 [1] = assay: Inhibition of LPS-induced NO production in mouse RAW264.7 cells preincubated for 1 hr followed by LPS stimulation measured after 24 hrs by Griess assay; type: functional, cell-based; details: for pIC50: Mus musculus, RAW264.7, read-out: IC50
RAW264.7 [2] = assay: Pro-inflammatory activity in mouse RAW264.7 cells assessed as LPS-induced NO production at 0.625 to 60 uM preincubated for 1 hr followed by LPS stimulation measured after 24 hrs by Griess assay; type: ADME, cell-based; details: raw264.7, 24 h

| Structure (SMILES) | pIC50 (RAW264.7 [1]) | IC50 (RAW264.7 [1]; raw264.7) | Activity (RAW264.7 [2]) |
| --- | --- | --- | --- |
| C[C@H]1[C@H](C)CC[C@@]23CC[C@]4(C)[C@@](C=C[C@@H]5[C@@]6(C)[C@H](O)CC(=O)C(C)(C)[C@@H]6CC[C@]54C)(OC2=O)[C@H]13 | 5.77 |  |  |
| O=c1c(O)c(-c2ccc(O)c(O)c2)oc2cc(O)cc(O)c12 [QUERCETIN] | 5.36 |  |  |
| C[C@H]1[C@H](C)CC[C@]2(C(=O)O)CC[C@]3(C)C(=CC[C@@H]4[C@@]5(C)CC[C@H](O)C(C)(C)[C@@H]5CC[C@]43C)[C@H]12 [URSOLIC ACID] |  | Not Active | Toxic |
| C[C@H]1[C@H](C)CC[C@]2(C(=O)O)CC[C@]3(C)C(=CC[C@@H]4[C@@]5(C)CCC(=O)C(C)(C)[C@@H]5CC[C@]43C)[C@H]12 [URSONIC ACID] | 5.31 |  |  |

Now from value to compound, other results behind:

| pIC50 (RAW264.7 [1]) | IC50 (RAW264.7 [1]; raw264.7) | Structure (SMILES) | Activity (RAW264.7 [2]) |
| --- | --- | --- | --- |
| 4.40 |  | C[C@H]1[C@H](C)CC[C@]2(C(=O)O)CC[C@]3(C)C(=C[C@@H](O)[C@@H]4[C@@]5(C)[C@H](O)C[C@H](O)C(C)(C)[C@@H]5CC[C@]43C)[C@H]12 |  |
| 5.91 |  | C[C@H]1[C@H](C)CC[C@]2(C(=O)O)CC[C@]3(C)C(=C[C@@H](O)[C@@H]4[C@@]5(C)[C@H](O)CC(=O)C(C)(C)[C@@H]5CC[C@]43C)[C@H]12 |  |
| < 4.22 |  | C[C@H]1[C@H](C)CC[C@]2(C(=O)O[C@@H]3O[C@H](CO)[C@@H](O)[C@H](O)[C@H]3O)CC[C@]3(C)C(=C[C@@H](O)[C@@H]4[C@@]5(C)[C@H](O)CC(=O)C(C)(C)[C@@H]5CC[C@]43C)[C@H]12 |  |
